From patent publication US6211425A, “Patch” (Saitama Daiichi Seiyaku Kabushiki Kaisha, priority 1996, dated 2001)
“Also recorded” adds a separate entry of the source.

What was measured:
[1] = percutaneous absorption of formoterol (finding of the inventors); conditions: formoterol and/or salts thereof not in a dissolved state
[2] = hydrolytic stability of formoterol (general statement); type: physicochemical; conditions: preparations having high water contents

**Q.** For `COc1ccc(CC(C)NCC(O)c2ccc(O)c(NC=O)c2)cc1` (centres unmarked) [formoterol], which percutaneous absorption [1] is on record?
**A.** Its percutaneous absorption is “extremely poor percutaneous absorption”.

**Q.** And the hydrolysis [2]?
**A.** The hydrolysis was “hydrolyzed; also recorded: easily hydrolyzable”.
